The supplement of paper PMC10307832

Experiments:
Experiment in all cases: relative viability (nuclei count vs DMSO), 5 days (fraction); higher = more cells survive
[1] = compound: C1=CC=C(C(=C1)C2=CC=C(C=C2)C3=CSC4=C3C(=C(C(=O)N4)C#N)O)O + C[C@]1(O)C[C@@H](c2nc(-c3ccc4ccc(-c5ccccc5)nc4c3)c3c(N)nccn32)C1 [Linsitinib] (partner 1 µM)
In short: (§1)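 A single step with final 0.05% Triton X-100, 1% formaldehyde and 1 ug/ml Hoechst fixed the cells and stained nuclei 5 days after treatment. Lung cancer cell lines in 1536-well plates had been treated by pin tool the day after seeding with one drug alone or a fixed anchor-drug dose plus five library-drug doses (not always all listed) in √10 steps, and nuclei were counted on 4× images. Relative viability is the ratio of nuclei in treated wells to nuclei in vehicle wells, taken as the median of duplicate plates.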

TGX 221 + Alpelisib = compound: CC1=CN2C(=O)C=C(N=C2C(=C1)C(C)NC3=CC=CC=C3)N4CCOCC4 [TGX 221] + Cc1nc(NC(=O)N2CCC[C@H]2C(N)=O)sc1-c1ccnc(C(C)(C)C(F)(F)F)c1 [Alpelisib] (partner 2 µM)
In short: as §1

[2] = compound: C1=CC=C(C(=C1)C2=CC=C(C=C2)C3=CSC4=C3C(=C(C(=O)N4)C#N)O)O + O=C(c1cc(Cc2n[nH]c(=O)c3ccccc23)ccc1F)N1CCN(C(=O)C2CC2)CC1 [Olaparib] (partner 8 µM)
In short: as §1

TGX 221 + Dasatinib = compound: CC1=CN2C(=O)C=C(N=C2C(=C1)C(C)NC3=CC=CC=C3)N4CCOCC4 [TGX 221] + Cc1nc(Nc2ncc(C(=O)Nc3c(C)cccc3Cl)s2)cc(N2CCN(CCO)CC2)n1 [Dasatinib] (partner 0.075 µM)
In short: as §1

## IA-LM
[1]; first compound 0.08 µM
  relative viability: 0.479
[1]; first compound 0.253 µM
  relative viability: 1.9
[1]; first compound 0.8 µM
  relative viability: 0.198
[1]; first compound 2.53 µM
  relative viability: 0.855
[1]; first compound 8 µM
  relative viability: 0.376
TGX 221 + Alpelisib; first compound 0.08 µM
  relative viability: 0.753
TGX 221 + Alpelisib; first compound 0.253 µM
  relative viability: 0.818
TGX 221 + Alpelisib; first compound 0.8 µM
  relative viability: 0.792
TGX 221 + Alpelisib; first compound 2.53 µM
  relative viability: 0.614
TGX 221 + Alpelisib; first compound 8 µM
  relative viability: 0.589
[2]; first compound 0.08 µM
  relative viability: 0.799
[2]; first compound 0.253 µM
  relative viability: 0.967
[2]; first compound 0.8 µM
  relative viability: 0.9
[2]; first compound 2.53 µM
  relative viability: 0.799
[2]; first compound 8 µM
  relative viability: 0.771

## NCI-H522
TGX 221 + Dasatinib; first compound 0.08 µM
  relative viability: 0.834
TGX 221 + Dasatinib; first compound 0.253 µM
  relative viability: 0.81
TGX 221 + Dasatinib; first compound 0.8 µM
  relative viability: 0.851
TGX 221 + Dasatinib; first compound 2.53 µM
  relative viability: 0.843
TGX 221 + Dasatinib; first compound 8 µM
  relative viability: 0.826
[2]; first compound 0.08 µM
  relative viability: 0.567
[2]; first compound 0.253 µM
  relative viability: 0.674
[2]; first compound 0.8 µM
  relative viability: 0.778
[2]; first compound 2.53 µM
  relative viability: 0.56
[2]; first compound 8 µM
  relative viability: 0.645

## NCI-H1299
[1]; first compound 0.08 µM
  relative viability: 0.848
[1]; first compound 0.253 µM
  relative viability: 1
[1]; first compound 0.8 µM
  relative viability: 0.852
[1]; first compound 2.53 µM
  relative viability: 1.01
[1]; first compound 8 µM
  relative viability: 0.912
TGX 221 + Alpelisib; first compound 0.08 µM
  relative viability: 0.991
TGX 221 + Alpelisib; first compound 0.253 µM
  relative viability: 1.07
TGX 221 + Alpelisib; first compound 0.8 µM
  relative viability: 1.12
TGX 221 + Alpelisib; first compound 2.53 µM
  relative viability: 1.14
TGX 221 + Alpelisib; first compound 8 µM
  relative viability: 1.17
[2]; first compound 0.08 µM
  relative viability: 1.01
[2]; first compound 0.253 µM
  relative viability: 0.992
[2]; first compound 0.8 µM
  relative viability: 0.959
[2]; first compound 2.53 µM
  relative viability: 0.942
[2]; first compound 8 µM
  relative viability: 0.967

## NCI-H1563
TGX 221 + Dasatinib; first compound 0.08 µM
  relative viability: 0.427
TGX 221 + Dasatinib; first compound 0.253 µM
  relative viability: 0.457
TGX 221 + Dasatinib; first compound 0.8 µM
  relative viability: 0.434
TGX 221 + Dasatinib; first compound 2.53 µM
  relative viability: 0.46
TGX 221 + Dasatinib; first compound 8 µM
  relative viability: 0.428
[1]; first compound 0.08 µM
  relative viability: 1.16
[1]; first compound 0.253 µM
  relative viability: 1.06
[1]; first compound 0.8 µM
  relative viability: 1.11
[1]; first compound 2.53 µM
  relative viability: 1.23
[1]; first compound 8 µM
  relative viability: 1.31
TGX 221 + Alpelisib; first compound 0.08 µM
  relative viability: 0.834
TGX 221 + Alpelisib; first compound 0.253 µM
  relative viability: 0.777
TGX 221 + Alpelisib; first compound 0.8 µM
  relative viability: 0.658
TGX 221 + Alpelisib; first compound 2.53 µM
  relative viability: 0.607
TGX 221 + Alpelisib; first compound 8 µM
  relative viability: 0.594

## NCI-H1623
TGX 221 + Dasatinib; first compound 0.08 µM
  relative viability: 0.538
TGX 221 + Dasatinib; first compound 0.253 µM
  relative viability: 0.564
TGX 221 + Dasatinib; first compound 0.8 µM
  relative viability: 0.599
TGX 221 + Dasatinib; first compound 2.53 µM
  relative viability: 0.541
TGX 221 + Dasatinib; first compound 8 µM
  relative viability: 0.536

## NCI-H1648
[2]; first compound 0.253 µM
  relative viability: 0.689
[2]; first compound 0.8 µM
  relative viability: 0.841
[2]; first compound 2.53 µM
  relative viability: 0.31
[2]; first compound 8 µM
  relative viability: 0.722

## NCI-H1650
TGX 221 + Dasatinib; first compound 0.08 µM
  relative viability: 0.236
TGX 221 + Dasatinib; first compound 0.253 µM
  relative viability: 0.29
TGX 221 + Dasatinib; first compound 0.8 µM
  relative viability: 0.28
TGX 221 + Dasatinib; first compound 2.53 µM
  relative viability: 0.323
TGX 221 + Dasatinib; first compound 8 µM
  relative viability: 0.242
[2]; first compound 0.08 µM
  relative viability: 0.716
[2]; first compound 0.253 µM
  relative viability: 1.03
[2]; first compound 0.8 µM
  relative viability: 0.742
[2]; first compound 2.53 µM
  relative viability: 0.759
[2]; first compound 8 µM
  relative viability: 0.645

## NCI-H1703
[1]; first compound 0.08 µM
  relative viability: 0.803
[1]; first compound 0.253 µM
  relative viability: 0.446
[1]; first compound 0.8 µM
  relative viability: 0.589
[1]; first compound 2.53 µM
  relative viability: 0.507
[1]; first compound 8 µM
  relative viability: 0.76
TGX 221 + Alpelisib; first compound 0.08 µM
  relative viability: 0.269
TGX 221 + Alpelisib; first compound 0.253 µM
  relative viability: 0.222
TGX 221 + Alpelisib; first compound 0.8 µM
  relative viability: 0.176
TGX 221 + Alpelisib; first compound 2.53 µM
  relative viability: 0.267
TGX 221 + Alpelisib; first compound 8 µM
  relative viability: 0.235
[2]; first compound 0.08 µM
  relative viability: 0.422
[2]; first compound 0.253 µM
  relative viability: 0.417
[2]; first compound 0.8 µM
  relative viability: 0.682
[2]; first compound 2.53 µM
  relative viability: 0.336
[2]; first compound 8 µM
  relative viability: 0.362

## NCI-H2170
TGX 221 + Dasatinib; first compound 0.08 µM
  relative viability: 0.542
TGX 221 + Dasatinib; first compound 0.253 µM
  relative viability: 0.48
TGX 221 + Dasatinib; first compound 0.8 µM
  relative viability: 0.527
TGX 221 + Dasatinib; first compound 2.53 µM
  relative viability: 0.519
TGX 221 + Dasatinib; first compound 8 µM
  relative viability: 0.507
TGX 221 + Alpelisib; first compound 0.08 µM
  relative viability: 0.754
TGX 221 + Alpelisib; first compound 0.253 µM
  relative viability: 0.704
TGX 221 + Alpelisib; first compound 0.8 µM
  relative viability: 0.747
TGX 221 + Alpelisib; first compound 2.53 µM
  relative viability: 0.7
TGX 221 + Alpelisib; first compound 8 µM
  relative viability: 0.682
[2]; first compound 0.08 µM
  relative viability: 0.624
[2]; first compound 0.253 µM
  relative viability: 0.617
[2]; first compound 0.8 µM
  relative viability: 0.571
[2]; first compound 2.53 µM
  relative viability: 0.687
[2]; first compound 8 µM
  relative viability: 0.528

## NCI-H2342
TGX 221 + Dasatinib; first compound 0.08 µM
  relative viability: 0.286
TGX 221 + Dasatinib; first compound 0.253 µM
  relative viability: 0.339
TGX 221 + Dasatinib; first compound 0.8 µM
  relative viability: 0.314
TGX 221 + Dasatinib; first compound 2.53 µM
  relative viability: 0.292
TGX 221 + Dasatinib; first compound 8 µM
  relative viability: 0.299
[2]; first compound 0.08 µM
  relative viability: 0.475
[2]; first compound 0.253 µM
  relative viability: 0.53
[2]; first compound 0.8 µM
  relative viability: 0.432
[2]; first compound 2.53 µM
  relative viability: 0.517
[2]; first compound 8 µM
  relative viability: 0.395

## SW 900
TGX 221 + Dasatinib; first compound 0.08 µM
  relative viability: 0.461
TGX 221 + Dasatinib; first compound 0.253 µM
  relative viability: 0.444
TGX 221 + Dasatinib; first compound 0.8 µM
  relative viability: 0.383
TGX 221 + Dasatinib; first compound 2.53 µM
  relative viability: 0.39
TGX 221 + Dasatinib; first compound 8 µM
  relative viability: 0.254
[2]; first compound 0.253 µM
  relative viability: 1.13
[2]; first compound 0.8 µM
  relative viability: 0.869
[2]; first compound 2.53 µM
  relative viability: 0.903
[2]; first compound 8 µM
  relative viability: 0.839
